The source of these data is patent publication US6649647B1, “Trioxane derivatives” (priority 1998, dated 2003).

Bounds are passed on as bounds.

Experiment [1] has as its system Rat 6 subclone of the immortalized F2408 embryo cell line (R6). The experiment is described as follows: Screening for cytotoxicity, cell count by Coulter Counter, R6 cells. Particulars: for LD50 (Day 3) R6: day 3 after addition; for LD50 (Day 6) R6: day 6 after addition. The class given is cell-based. Here is the method: (§1) Compounds of the invention were screened against Rat 6 subclone of the immortalized F2408 embryo cell line, and Rat 6 (R6T24) cells transfected and transformed by a c-H-ras oncogene. The screening involved placing the R6 and R6T24 cell lines plated at 10^3 cells per well into a 12-well microtiter culture plate for 24 hours. The compounds were added at final concentrations from 0.1-100 μM, and cells were trypsized and counted by Coulter Counter at day 3 and day 6 after the addition. Untreated cells were assigned a survival value of 100%.

Experiment [2] concerns Rat 6 (R6T24) cells transfected and transformed by a c-H-ras oncogene. Description: Screening for cytotoxicity, cell count by Coulter Counter, R6T24 cells. The class given is cell-based. Particulars: R6T24 cell line; for LD50 (Day 3) R6T24: day 3 after addition; for LD50 (Day 6) R6T24: day 6 after addition. Here is the method:
as §1

For the molecule `COc1cc(OC)c(C2OC3OC4(C)CCC5C(C)CCC(C2C)C35OO4)c(OC)c1` (mixture of isomers) [Example 27], the “LD50 (Day 3) R6” value in experiment [1] (Table V) and in experiment [1] (Table VA) was 0.57 µM each time. The “LD50 (Day 6) R6” value in experiment [1] (Table V) and in experiment [1] (Table VA) was 1.10 µM in each case. Moreover, the “LD50 (Day 3) R6T24” value in experiment [2] (Table V) and in experiment [2] (Table VA) was 0.67 µM each time. Moreover, the “LD50 (Day 6) R6T24” value in experiment [2] (Table V) and in experiment [2] (Table VA) was 0.26 µM throughout.

Turning to `CO[C@H]1O[C@@H]2O[C@@]3(C)CC[C@H]4[C@H](C)CC[C@@H]([C@H]1C)[C@@]24OO3` [Artemether, artemether, reference compound], in experiment [1] (Table V), the “LD50 (Day 3) R6” value was above 100.00 µM and the “LD50 (Day 6) R6” value is 1.0 µM. Moreover, in experiment [1] (Table VA), the “LD50 (Day 3) R6” value is above 100 µM and the “LD50 (Day 6) R6” value was 0.6 µM. In experiment [2] (Table V), the “LD50 (Day 3) R6T24” value was above 100.00 µM and the “LD50 (Day 6) R6T24” value turned out to be 1.8 µM. In experiment [2] (Table VA), the “LD50 (Day 3) R6T24” value was above 100 µM and the “LD50 (Day 6) R6T24” value turned out to be 0.71 µM.

Regarding `CC1CCC2[C@@H](C)C(=O)OC3O[C@]4(C)CCC1C32OO4` (stereo partly drawn) [Artemisinin, artemisinin, reference compound], in experiment [1] (Table V), the “LD50 (Day 3) R6” value was above 100.00 µM and the “LD50 (Day 6) R6” value turned out to be 4.08 µM. In experiment [1] (Table VA), the “LD50 (Day 3) R6” value is above 100.00 µM and the “LD50 (Day 6) R6” value worked out at 4.08 µM. Further, in experiment [2] (Table V), the “LD50 (Day 3) R6T24” value was 3.09 µM and the “LD50 (Day 6) R6T24” value was 1.75 µM. In addition, in experiment [2] (Table VA), the “LD50 (Day 3) R6T24” value was found to be 3.49 µM and the “LD50 (Day 6) R6T24” value is 1.75 µM.

With `C[C@H]1[C@H](OC(=O)CCC(=O)O)O[C@@H]2O[C@@]3(C)CC[C@H]4[C@H](C)CC[C@@H]1[C@@]24OO3` [Artesunate, artesunate, reference compound], the “LD50 (Day 3) R6” value in experiment [1] (Table V) and in experiment [1] (Table VA) was 2.80 µM each time. The figures for the “LD50 (Day 6) R6” value in experiment [1] (Table V) and in experiment [1] (Table VA) were 2.06 µM and 2.08 µM, respectively. Moreover, the “LD50 (Day 3) R6T24” value in experiment [2] (Table V) and in experiment [2] (Table VA) was 1.77 µM throughout. Further, the “LD50 (Day 6) R6T24” value in experiment [2] (Table V) and in experiment [2] (Table VA) was 1.04 µM each time.

For the molecule `CC1CCC2[C@@H](C)C(=O)N(Cc3ccccc3)C3O[C@]4(C)CCC1C23O4` (stereo partly drawn) [D, reference compound], in experiment [1] (Table V), the “LD50 (Day 3) R6” value was above 50.00 µM and the “LD50 (Day 6) R6” value was above 50.00 µM. Besides, in experiment [1] (Table VA), the “LD50 (Day 3) R6” value was above 50 µM and the “LD50 (Day 6) R6” value is above 50 µM. For the same molecule, in experiment [2] (Table V), the “LD50 (Day 3) R6T24” value was above 50.00 µM and the “LD50 (Day 6) R6T24” value is above 50.00 µM. In experiment [2] (Table VA), the “LD50 (Day 3) R6T24” value is above 50 µM and the “LD50 (Day 6) R6T24” value was above 50 µM.

`CC1CCC2C(C)C(F)OC3OC4(C)CCC1C32OO4` (stereo not drawn) [Example 1, 10β-fluoro-10-deoxodihydroartemisinin]: the “LD50 (Day 3) R6” value in experiment [1] (Table V) amounted to 1.18 µM; in experiment [1] (Table VA), 1.28 µM. Besides, the “LD50 (Day 6) R6” value in experiment [1] (Table V) worked out at 1.63 µM; in experiment [1] (Table VA), 1.62 µM. Also, the “LD50 (Day 3) R6T24” value in experiment [2] (Table V) and in experiment [2] (Table VA) was 1.93 µM throughout. For the same molecule, the “LD50 (Day 6) R6T24” value in experiment [2] (Table V) and in experiment [2] (Table VA) was 0.61 µM throughout.

`CC1CC[C@H]2[C@@H](C)C(=O)NC3O[C@]4(C)CCC1C32OO4` (stereo partly drawn) [Example 14, 11-azaartemisinin]: in experiment [1] (Table V), the “LD50 (Day 3) R6” value is above 50.00 µM and the “LD50 (Day 6) R6” value stood at 1.22 µM. Besides, in experiment [1] (Table VA), the “LD50 (Day 3) R6” value is above 50 µM and the “LD50 (Day 6) R6” value worked out at 1.22 µM. Moreover, in experiment [2] (Table V), the “LD50 (Day 3) R6T24” value worked out at 0.18 µM and the “LD50 (Day 6) R6T24” value was found to be 0.09 µM. In experiment [2] (Table VA), the “LD50 (Day 3) R6T24” value amounted to 0.18 µM and the “LD50 (Day 6) R6T24” value was 0.09 µM.

With `CC1CCC2C(CN(Cc3ccccc3)Cc3ccccc3)C(=O)OC3OC4(C)CCC1C32OO4` (stereo not drawn) [Example 17, 9-(N,N-dibenzylaminomethyl)artemisinin], in experiment [1] (Table V), the “LD50 (Day 3) R6” value stood at 1.57 µM and the “LD50 (Day 6) R6” value amounted to 2.58 µM. In addition, in experiment [2] (Table V), the “LD50 (Day 3) R6T24” value was 1.81 µM and the “LD50 (Day 6) R6T24” value was 0.54 µM.
